In paper PMC9268615, “Identification of Anti-Proliferative Compounds from Genista monspessulana Seeds through Covariate-Based Integration of Chemical Fingerprints and Bioactivity Datasets” (Molecules, 2022):
Several values for one entry are separate records, joined by “and”; a condition that tells them apart may be missing. Identical values can stand only once. Like-named read-outs stand apart in the source and are kept apart here.

Key:
[1] = tested on: SiHa (human cervical carcinoma); test: MTT cell viability assay, SiHa; type: cell-based; conditions: for IC50: Homo sapiens, SiHa, pure compounds, MTT, 48 h incubation
Protocol: (§1) Human prostatic adenocarcinoma (PC-3, ATCC CRL-7934), human lung adenocarcinoma (A549, ATCC CCL-185), and human cervical carcinoma (SiHa, ATCC HTB-35) cancer cell lines and normal mouse fibroblasts (L929, ATCC CRL-6364) were maintained in a humidified atmosphere with 5% CO2 at 37 °C, and grown as a monolayer culture in Dulbecco’s Modified Eagle Medium (DMEM) medium with 10% (v/v) fetal bovine serum (FBS), 1% (v/v) penicillin, and 1% (v/v) streptomycin. The anti-proliferative effects of G. monspessulana extracts and isolated compounds were measured according to a reported method. Cell suspension (100 µL, 5 × 10^3 cells/well) was inoculated in 96-well plates and cultured for 24 h. After that, the culture medium was replaced with a serum-free medium (100 µL) containing different concentrations of treatments (0.8–500 µg/mL for extracts and 0.16–100 µg/mL for pure compounds). Extracts and compounds were measured in triplicate. A PBS-containing free medium was used as a blank, 1% (w/v) bovine serum albumin-amended medium as negative control (100% survival), and curcumin (0.16–100 µg/mL) was used as the positive control. After 48 h of incubation, the cell viability was assessed by adding MTT (10 µL, 5 mg/mL) to each well, and the plates were subsequently incubated under 5% CO2 at 37 °C for 3 h. Formazan crystals were dissolved with 100 µL of DMSO. Absorbance was measured at 570 nm using a Varioskan LUX 96-well plate reader (Thermo Fisher Scientific, Waltham, MA, USA). The anti-proliferative effects were expressed as half-maximal inhibitory concentration (IC50) in µg/mL (extracts) and µM (compounds). The IC50 values were calculated from the dose-response curves through non-linear regression using GraphPad 5.0 (GraphPad Software, San Diego, CA, USA).

[2] = tested on: MDA-MB cell line; conditions: cited from earlier work
[3] = tested on: A549 cell line; conditions: read-out: IC50 A549; cytotoxic through apoptosis induction; cited from earlier work
[4] = tested on: PC-3 (human prostate adenocarcinoma); test: MTT cell viability assay, PC-3; type: cell-based; conditions: for IC50: pure compounds, MTT, 48 h incubation
Protocol: as §1

[5] = tested on: HepG2 (human hepatocellular carcinoma) cell line; conditions: cited from earlier work
[6] = tested on: A549 (human lung carcinoma); test: MTT cell viability assay, A549; type: cell-based; conditions: for IC50: Homo sapiens, A549, pure compounds, MTT, 48 h incubation
Protocol: as §1

[7] = tested on: L929 (normal mouse fibroblasts); test: MTT cell viability assay, L929 fibroblasts; type: cell-based; conditions: 48 h incubation; for IC50: Mus musculus, L929, pure compounds; for IC50 L929: pure compounds
Protocol: as §1

[8] = tested on: MCF-7 cell line; conditions: cited from earlier work
[9] = tested on: FaDu cell line; conditions: cited from earlier work
[10] = tested on: HL-60 cell line; parameters: method as in PMID 16887297; conditions: cytotoxic activity; cited from earlier work
[11] = tested on: MCF-7 (human breast cancer cell line); parameters: method as in PMID 30467293; conditions: vs cytisine and (−)-maackiain; cited from earlier work
[12] = tested on: MDA-MB-231 (human breast cancer cell line); parameters: method as in PMID 30467293; conditions: vs cytisine and (−)-maackiain; cited from earlier work
[13] = tested on: PC-3; parameters: method as in doi:10.1590/S0103-50532012000300015; conditions: cited from earlier work
[14] = tested on: various cancer cell lines (KB, P-388, HL-60, K-562, MOLT-4, H2108, H1299, MRC-5, 786-O, Caki1, SN12C, SH-SY5Y, A375, SK-MEL-1, Eca109, KYSE30, HCT-116, SW480); parameters: method as in PMID 31551770; conditions: cytotoxicity; cited from earlier work
[15] = tested on: MOLT-4 cell line; parameters: method as in PMID 23850732; conditions: cited from earlier work
[16] = tested on: HL-60 cell line; parameters: method as in PMID 23850732; conditions: cited from earlier work
[17] = tested on: K-562 cell line; parameters: method as in PMID 23850732; conditions: cited from earlier work
[18] = tested on: SMMC-7721 (hepatocellular carcinoma) cells; parameters: method as in PMID 29330507; conditions: cited from earlier work

Molecule	IC50 [1]	IC50 ([4]; Homo sapiens, 48 h)	IC50 [6]	IC50 [7]	also measured
O=c1cccc2n1C[C@@H]1CNC[C@H]2C1 [Compound 1, (–)-cytisine]	357 µM	< 18.6 µM	42.5 µM	103 µM	effect on MDA-MB cell line [2]: not affected; IC50 [3]: 26.8 µM; IC50 [4]: 15.8 µM; effect on HepG2 cell line [5]: inducing mitochondrial-mediated apoptosis; effect on MCF-7 cell line [8]: not affected; effect on FaDu cell line [9]: not affected
O=c1cccc2n1C[C@H]1C[C@@H]2CN2CCCC[C@H]12 [Compound 4, (–)-anagyrine]	> 409 µM		> 409 µM	36.5 µM	IC50 ([4]; Homo sapiens): 33.5 µM; IC50 [10]: 18 µM
tonkinensine B					fold better activity than respective precursors, MCF-7 [11]: 2–3 fold; fold better activity than respective precursors, MDA-MB-231 [12]: 2–3 fold
CC1(C)C=Cc2c(cc3occ(-c4ccc(O)cc4)c(=O)c3c2O)O1 [Compound 2, alpinumisoflavone]	19.6 µM	< 18.6 µM	> 303 µM	> 297 µM	IC50 [13]: < 30 µM; IC50 [14]: < 70 µM; IC50 [4]: 18.6 µM; IC50 L929 [7]: inactive
O=C1[C@@H]2C[C@H](CN3CCCC[C@@H]23)[C@H]2CCCCN12 [Compound 3, (+)-aphylline]	> 403 µM	21.3 µM	> 403 µM	22.3 µM	
COc1cc(/C=C/C(=O)CC(=O)/C=C/c2ccc(O)c(OC)c2)ccc1O [curcumin, reference compound]	6.5 µM	9.5 µM	8.4 µM	105 µM	
CC1(C)C=Cc2c(cc3occ(-c4ccc(O)c(CN5C[C@@H]6C[C@H](C5)c5cccc(=O)n5C6)c4)c(=O)c3c2O)O1 [Compound 8, (–)-3′-(N-cytisine)methylalpinumisoflavone]	17.5 µM		46.8 µM	385 µM	selectivity index (SI = IC50 normal cells/IC50 cancer cells) SiHa ([1]; L929 vs SiHa): 22.0; IC50 ([4]; Homo sapiens): 10.1 µM; selectivity index (SI = IC50 normal cells/IC50 cancer cells) PC-3 ([4]; L929 vs PC-3): 38.1 and > 30; selectivity index (SI = IC50 normal cells/IC50 cancer cells) A549 ([6]; L929 vs A549): 8.2
CC(C)=CCc1c(O)cc2occ(-c3ccc(O)cc3)c(=O)c2c1O [Compound 6, wighteone]	> 296 µM	34.3 µM	> 296 µM	> 296 µM	IC50 [15]: > 70 µM; IC50 [16]: > 70 µM; IC50 [17]: > 70 µM; IC50 L929 [7]: inactive
O=C1CCC=C2C3CC(CN12)C1CCCCN1C3 (single isomer, unassigned; (+)) [Compound 7, (+)-5,6-dehydrolupanine]	> 406 µM	31.5 µM	> 406 µM	85.9 µM	
CN1CC2CC(C1)c1cccc(=O)n1C2 (single isomer, unassigned; (-)) [Compound 5, (–)-N-methylcytisine]	> 490 µM	28.4 µM	36.3 µM	91.3 µM	proliferation of SMMC-7721 cells [18]: can inhibit the proliferation
